From patent publication US6521609B1, “Use of CGRP antagonists and CGRP release inhibitors for combating menopausal hot flushes” (Boehringer Ingelheim Pharma KG, priority 1999, dated 2003)

Each molecule was assayed on increased blood flow through the facial skin caused by endogenous CGRP (assay: Trigeminal ganglion stimulation in marmosets: facial skin blood flow (laser Doppler)). Conditions: anaesthetized marmosets, i.v. 5 minutes before trigeminal ganglion stimulation (10 Hz, 2 mA, 2 msec, 30 seconds).
Type: in vivo, marmoset
Procedure: The efficacy of the following test substances was characterised by determining the dose administered i.v. which reduces by 50% the increased blood flow through the skin of the face which has been brought about by endogenous CGRP:
Marmosets of both sexes (300-400 g) are anaesthetized with pentobarbital (initially with 30 mg/kg, i.p., followed by infusion of 6 mg/kg/h, […].). The body temperature is maintained at 37° C. using a heating plate. Pancuronium is administered as a muscle relaxant (initially 1 mg/kg, 0.5 mg after each hour thereafter). The animal's head is secured in a stereotactical apparatus. After the skin on the head has been opened using a lengthwise incision, a small hole is drilled in the skull and a bipolar electrode (Rhodes SNES 100) is lowered into the trigeminal ganglion. […] The petrous bone serves as a guide for placing the electrode (CCX-Digital X-ray apparatus). The position of the electrode in the ganglion is monitored at the end of each experiment. The stimulation parameters are: 10 Hz, 2 mA, 2 msec, for 30 seconds. The blood flow in the micro-vessels of the facial skin is determined by laser Doppler flow measurement using a PeriFlux Laser Doppler System. The animals are exposed to 2 to 3 stimulation periods at intervals of 30 minutes in each case. The first stimulation serves as a reference value for the other stimulations. The test substances are administered i.v. 5 minutes before the 2nd and 3rd stimulation periods.

`Nc1c(Br)cc(C[C@@H](NC(=O)N2CCC(N3Cc4ccccc4NC3=O)CC2)C(=O)N2CCC(N3CCCCC3)CC2)cc1Br` [AM] and `CN(C)CCc1c[nH]c2ccc(C[C@H]3COC(=O)N3)cc12` [DB] are within 1.5-fold of each other in “50% dose (i.v. dose which reduces by 50% the increased blood flow through the facial skin caused by endogenous CGRP)” value: 0.046 mg/kg for the first, 0.035 mg/kg for the second.

With `CNS(=O)(=O)Cc1ccc2[nH]cc(CCN(C)C)c2c1` [DA] the “50% dose (i.v. dose which reduces by 50% the increased blood flow through the facial skin caused by endogenous CGRP)” value was 0.280 mg/kg.
